Laboratory results published in PMC9934367, “Functional impact of subunit composition and compensation on Drosophila melanogaster nicotinic receptors–targets of neonicotinoids” (PLOS Genetics, 2023).
pEC50: −log10 of the molar value. Read-outs that look alike come from different tables or passages of the source.

Tests used:
[1] = target: T1, Dα1/Dα3/Dβ1/Dβ2 nAChR (Drosophila melanogaster, UniProt P04755+P09478+P25162+Q9W3G6); assay: cell-based; parameters: species or system D. melanogaster; conditions: mean ± standard error (n = 5)
T1 construct: Dα1 (NP_524481); Dβ1 (NP_523927); Dβ2 (NP_524483); expressed in transfected cells; host or cells: Xenopus laevis oocytes (cRNA injection)
Description: (§1) cDNAs of the nAChR subunits and co-factors were cloned into pcDNA3.1 (+) vector (Thermo Fisher Scientific). The accession numbers of the nAChR subunits and cofactors are as follows: Dα1 (NP_524481), Dα2 (NP_524482), Dα3 (NP_525079), Dα4 (CAB77445), Dβ1 (NP_523927), Dβ2 (NP_524483), Dβ3 (NP_525098), DmRIC-3 (CAP16647), DmUNC-50 (NP_649813), and DmTMX3 (NP_648847). cRNAs were prepared using the mMESSAGE mMACHINE T7 ULTRA Transcription Kit (Thermo Fisher Scientific, #AM1345) according to the manual with the cDNA template which was cut with appropriate restriction enzymes at the 3’ end of the cDNA.
(§2) We minimised the use of X. laevis according to the UK Animals (Scientific Procedures) Act, 1986. […] Oocytes were defolliculated after collagenase treatment in Ca^2+-free standard oocyte saline (Ca^2+-free SOS). cRNAs of the nAChR subunits and co-factors mixed at a concentration of 0.1 mg/mL was injected into oocytes at a volume of 50 nL. Then the oocytes were incubated in the incubation medium (SOS supplemented with sodium pyruvate (Nacalai Tesque, #13058–12), penicillin-streptomycin (MilliporeSigma, #P4333), gentamycin (Nacalai Tesque, #16672–04), and 4% horse serum (Thermo Fisher Scientific, #26050–070) for 3−4 days prior to electrophysiology.
(§3) Each defolliculated X. laevis oocyte was secured in a Perspex recording chamber and perfused with the standard oocyte saline (SOS) containing 0.5 μM atropine (SOSA) at a flow rate of 7−10 mL/min [48]. Two glass electrodes filled with 2 M KCl were impaled into each oocyte and the membrane potential was clamped at -100 mV. […] The peak amplitude of the response was measured and analysed by pCLAMP (Molecular Devices, USA).
(§4) Y=Imax/1+10^(logEC50‐X)nH
(§5) Where Y is the normalised response, X is log[ligand (M)], EC50 is the half maximal concentration (M), Imax is the maximum normalised response and nH is the Hill coefficient.

[2] = target: T2, Dα1/Dα3/Dβ1 nAChR (Drosophila melanogaster, UniProt P04755+P09478+Q9W3G6); assay: cell-based; parameters: species or system D. melanogaster; conditions: for Imax / EC50: mean ± standard error (n = 5); for EC50: read-out: pEC50 (converted)
T2 construct: Dα1 (NP_524481); Dβ1 (NP_523927); expressed in transfected cells; host or cells: Xenopus laevis oocytes (cRNA injection)
Description: as §1, §2, §3, §4, §5

[3] = target: T3, Dα1/Dα2/Dα3/Dβ1 nAChR (Drosophila melanogaster, UniProt P04755+P09478+P17644+Q9W3G6); assay: cell-based; parameters: species or system D. melanogaster; conditions: mean ± standard error (n = 5)
T3 construct: Dα1 (NP_524481); Dα2 (NP_524482); Dβ1 (NP_523927); expressed in transfected cells; host or cells: Xenopus laevis oocytes (cRNA injection)
Description: as §1, §2, §3, §4, §5

[4] = test system: Adult D. melanogaster flies; assay: Adult climbing assay; type: in vivo; conditions: RNAi of Dα2
Description: All flies were raised at 25°C under 12 h/12 h light/dark cycle. The animals were reared on standard fly food containing 5.5 g agar, 100 g glucose, 40 g dry yeast, 90 g cornflour, 3 mL propionic acid, and 3.5 mL 10% butyl p-hydroxybenzoate (Nacalai Tesque, Japan, #06327–15) in 70% ethanol per liter. The control strain was w^1118, and transgenic flies are as follows: UAS-nAChRα1 RNAi (#28688) was obtained from the Bloomington Drosophila Stock Center (BDSC); UAS-nAChRα2 RNAi (UAS-Dα2 RNAi, #10760), UAS-nAChRα3 RNAi (UAS-Dα3 RNAi, #101806); UAS-dicer2 (#60009) were obtained from the Vienna Drosophila Resource Center (VDRC); and UAS-mCD8::GFP (#108068) was obtained from Kyoto Stock Center. elav-Gal4 (3A3) was obtained from Michael B. O’Connor. nAChRα3-knock-in 2A-Gal4 (Dα3-knock-in T2A-Gal4) was generated by the CRISPR/Cas9 system as described in detail below.
Adult D. melanogaster flies were collected within a day following eclosion and placed in normal fly food (less than 30 flies/vial). Flies were transferred daily to new fly food. 2–5 days after eclosion, flies were briefly anesthetised with CO2, and the sexes were separated and sorted into fly vials containing 1.0% agar food for starvation (10 flies/vial). After 16 h starvation, flies were transferred to vials containing neonicotinoid-containing food without anesthesia and cultured for 6 h (10 flies/vial). Neonicotinoid-containing foods were prepared by mixing 10 μL of diluted neonicotinoids dissolved in DMSO with 990 μL of a solution containing 1% agar and 5% sucrose for each vial. After 6 h cultured in vials containing neonicotinoid-containing food, flies were gently tapped down to the surface of the food, and flies that climbed within 20 s after tapping were recorded by a video camera (GZ-F270-W, JVCKENWOOD, Japan). The maximum climbing heights of the flies within 20 s after tapping were measured using ImageJ1.53v (National Institute of Health, USA). Since the height from the surface of the food to the vial top is 8 cm, the maximum climbing height is 8 cm.

[5] = normalised to maximum ACh response

SMILES | Imax ([1]; efficacy) | Imax ([2]; efficacy) | Imax ([3]; efficacy) | pEC50 [1] | Imax [1, 5] | EC50 [2] | Imax [2, 5] | pEC50 [3] | Imax [3, 5] | sensitivity in adults, effect of RNAi ([4]; adult males) | sensitivity in adults, effect of RNAi ([4]; adult females) | pEC50 ([2]; read-out: EC50)
CC(=O)OCC[N+](C)(C)C [ACh, acetylcholine] | 1 | 1 | 1 | – | – | – | – | – | – | – | – | –
CN/C(=N\[N+](=O)[O-])NCc1cnc(Cl)s1 [Clothianidin, clothianidin] | 0.684 | 0.627 | 0.817 | 7.40 | 0.684 ± 0.022 | 0.0631 µM | 0.627 ± 0.025 | 6.55 | 0.817 ± 0.024 | hypersensitivity | – | –
O=[N+]([O-])NC1=NCCN1Cc1ccc(Cl)nc1 [Imidacloprid, imidacloprid] | 0.330 | 0.170 | 0.094 | 7.52 | 0.330 ± 0.018 | 0.0263 µM | 0.170 ± 0.020 | 7.08 | 0.094 ± 0.007 | hypersensitivity | hypersensitivity | –
N#C/N=C1\SCCN1Cc1ccc(Cl)nc1 [Thiacloprid, thiacloprid] | 0.107 | 0.047 | 0.047 | 8.00 | 0.107 ± 0.015 | – | 0.047 ± 0.006 | 7.73 | 0.047 ± 0.004 | hypersensitivity | hypersensitivity | 8.07
